Measured values published in US10251889B2, “Substituted pyrazolo[1,5-a]pyrimidine compounds as Trk kinase inhibitors” (Array BioPharma, Inc., priority 2009, dated 2019).

target: Jak2 (human Jak2 kinase domain, amino acids 808-1132) (Homo sapiens (Human), UniProt O60674); assay: Jak2 inhibition assay (Omnia kinase assay); format: biochemical; conditions: read-out: Jak2 Enzyme (% inhibition at 1000 nM), Table 1; 1000 nM test compound
Procedure: The assays described in Examples C, D, E and F for the determination of JAK1, JAK2, JAK3 and Tyk2 kinase activity, respectively, utilized the Omnia® Kinase fluorescence peptide substrate-based technology (Invitrogen). […] The reactions were therefore read at excitation 360 nm and emission was measured at 485 nm every 50 seconds for 45 minutes using a PerkinElmer EnVision Multilabel Plate Reader.
The final buffer conditions for each of the JAK1, JAK2, JAK3 and Tyk2 assays were as follows: 25 mM HEPES, pH 7.4, 10 mM MgCl2, 0.01% Triton X-100 and 1 mM DTT.
Two-μL aliquots of these were transferred to a fresh plate for a ten-fold intermediate dilution with assay buffer. Five-μL aliquots of the diluted compounds were then transferred to 20-μL of assay mixtures described in Examples C, D, E and F for a final concentration of DMSO of 2%. […] For each plate, percent of control (POC) values were calculated for each well according to the following equation:
where Xmax=Average Uninhibited Controls • Xmin=Average Background IC50's were estimated from the POC's using a standard 4-parameter logistic model:
where A=Minimum Y (Bottom Asymptote) • B=Maximum Y (Top Asymptote) • C=EC50 • D=Slope Factor • X=Compound Concentration (nM) • Y=POC
The IC50 is defined as the concentration of inhibitor at which the POC equals 50 for the fitted curve.
Compounds of Formula I were screened for their ability to inhibit Jak2 using the general enzyme inhibition assay method, in which the assay mixture contained 500 μM ATP, 10 μM Omnia® Y7 peptide (Catalog # IVGN KNZ3071C, Invitrogen Corporation, Carlsbad, Calif.) and 4 nM Jak2 in a total volume of 20 μL. Human Jak2 kinase domain comprising amino acids 808-1132 was purchased from Invitrogen Corporation, Carlsbad, Calif. (catalog # IVGN PV4210).

Jak2 (human Jak2 kinase domain, amino acids 808-1132), sequence (O60674 808-1132): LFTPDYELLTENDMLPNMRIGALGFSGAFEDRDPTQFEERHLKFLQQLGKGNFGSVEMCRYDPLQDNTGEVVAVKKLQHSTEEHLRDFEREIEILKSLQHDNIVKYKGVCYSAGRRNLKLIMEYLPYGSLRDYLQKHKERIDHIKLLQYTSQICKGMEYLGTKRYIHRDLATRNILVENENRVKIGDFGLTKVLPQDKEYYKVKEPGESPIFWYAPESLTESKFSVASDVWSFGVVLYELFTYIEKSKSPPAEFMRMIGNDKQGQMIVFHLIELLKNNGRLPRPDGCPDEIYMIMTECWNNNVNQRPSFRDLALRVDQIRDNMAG

Row | inhibition at 1 µM | Compound
1 | 0.5% | CC1(O)CN(C(=O)c2cnn3ccc(N4CCC[C@@H]4c4cncc(F)c4)nc23)C1 [Example 92, (R)-(5-(2-(5-fluoropyridin-3-yl)pyrrolidin-1-yl)pyrazolo[1,5-a]pyrimidin-3-yl)(3-hydroxy-3-methylazetidin-1-yl)methanone]
2 | 3.2% | O=C(NCCO)c1cnn2ccc(N3CCC[C@@H]3c3cncc(F)c3)nc12 [Example 112, (R)-5-(2-(5-fluoropyridin-3-yl)pyrrolidin-1-yl)-N-(2-hydroxyethyl)pyrazolo[1,5-a]pyrimidine-3-carboxamide]
3 | 18.8% | O=C(NCCN1CCOCC1)c1cnn2ccc(N3CCC[C@@H]3c3cc(F)ccc3F)nc12 [Example 4, (R)-5-(2-(2,5-difluorophenyl)pyrrolidin-1-yl)-N-(2-morpholinoethyl)pyrazolo[1,5-a]pyrimidine-3-carboxamide]
4 | 3.6% | Cc1ncc(F)cc1[C@H]1CCCN1c1ccn2ncc(C(=O)N[C@@H]3CCC[C@H]3O)c2n1 [Example 197, 5-((R)-2-(5-fluoro-2-methylpyridin-3-yl)pyrrolidin-1-yl)-N-((1R,2R)-2-hydroxycyclopentyl)pyrazolo[1,5-a]pyrimidine-3-carboxamide]
5 | 4.5% | O=C(O)CC1CCN(C(=O)c2cnn3ccc(N4CCC[C@@H]4c4cc(F)ccc4F)nc23)CC1 [Example 12, (R)-2-(1-(5-(2-(2,5-difluorophenyl)pyrrolidin-1-yl)pyrazolo[1,5-a]pyrimidine-3-carbonyl)piperidin-4-yl)acetic Acid]
6 | 35.6% | COc1ncc(F)cc1[C@H]1CCCN1c1ccn2ncc(C(=O)NCCCCO)c2n1 [Example 151, (R)-5-(2-(5-fluoro-2-methoxypyridin-3-yl)pyrrolidin-1-yl)-N-(4-hydroxybutyl)pyrazolo[1,5-a]pyrimidine-3-carboxamide]
7 | 3.4% | O=C(c1cnn2ccc(N3CCC[C@@H]3c3cc(F)ccc3F)nc12)N1CC[C@@H](O)C1 [Example 19, (5-((R)-2-(2,5-difluorophenyl)pyrrolidin-1-yl)pyrazolo[1,5-a]pyrimidin-3-yl)((R)-3-hydroxypyrrolidin-1-yl)methanone]
8 | 44.6% | CC(NC(=O)c1cnn2ccc(N3CCCC3c3cncc(F)c3)nc12)C1CC1 [Example 113, N-(1-cyclopropylethyl)-5-((R)-2-(5-fluoropyridin-3-yl)pyrrolidin-1-yl)pyrazolo[1,5-a]pyrimidine-3-carboxamide]
9 | 33.8% | CNC(=O)c1cnn2ccc(N3CCC[C@@H]3c3cc(F)cnc3OC)nc12 [Example 153, (R)-5-(2-(5-fluoro-2-methoxypyridin-3-yl)pyrrolidin-1-yl)-N-methylpyrazolo[1,5-a]pyrimidine-3-carboxamide]
10 | 31.7% | O=C(NC1(CO)CC1)c1cnn2ccc(N3CCC[C@@H]3c3cc(F)ccc3F)nc12 [Example 16, (R)-5-(2-(2,5-difluorophenyl)pyrrolidin-1-yl)-N-(1-(hydroxymethyl)cyclopropyl)pyrazolo[1,5-a]pyrimidine-3-carboxamide]
11 | 14.6% | O=C(NCC(F)(F)F)c1cnn2ccc(N3CCC[C@@H]3c3cncc(F)c3)nc12 [Example 131, (R)-5-(2-(5-fluoropyridin-3-yl)pyrrolidin-1-yl)-N-(2,2,2-trifluoroethyl)pyrazolo[1,5-a]pyrimidine-3-carboxamide]
12 | 18.2% | CC(C)(C#N)NC(=O)c1cnn2ccc(N3CCC[C@@H]3c3cc(F)ccc3F)nc12 [Example 38, (R)—N-(2-cyanopropan-2-yl)-5-(2-(2,5-difluorophenyl)pyrrolidin-1-yl)pyrazolo[1,5-a]pyrimidine-3-carboxamide]
13 | 51.9% | Cn1cc(F)cc([C@H]2CCCN2c2ccn3ncc(C(=O)NC4(C)CC4)c3n2)c1=O [Example 237, (R)-5-(2-(5-fluoro-1-methyl-2-oxo-1,2-dihydropyridin-3-yl)pyrrolidin-1-yl)-N-(1-methylcyclopropyl)pyrazolo[1,5-a]pyrimidine-3-carboxamide]
14 | 3.8% | C[C@H](O)[C@H](CO)NC(=O)c1cnn2ccc(N3CCC[C@@H]3c3cc(F)ccc3F)nc12 [Example 175, 5-((R)-2-(2,5-difluorophenyl)pyrrolidin-1-yl)-N-((2S,3S)-1,3-dihydroxybutan-2-yl)pyrazolo[1,5-a]pyrimidine-3-carboxamide]
15 | 53.3% | Cn1cc(F)cc([C@H]2CCCN2c2ccn3ncc(C(=O)NC4CCC4)c3n2)c1=O [Example 230, (R)-N-cyclobutyl-5-(2-(5-fluoro-1-methyl-2-oxo-1,2-dihydropyridin-3-yl)pyrrolidin-1-yl)pyrazolo[1,5-a]pyrimidine-3-carboxamide]
16 | 10.7% | COc1ncc(F)cc1[C@H]1CCCN1c1ccn2ncc(C(N)=O)c2n1 [Example 82, (R)-5-(2-(5-fluoro-2-methoxypyridin-3-yl)pyrrolidin-1-yl)pyrazolo[1,5-a]pyrimidine-3-carboxamide]
17 | 27.9% | C[C@H](NC(=O)c1cnn2ccc(N3CCC[C@@H]3c3cncc(F)c3)nc12)C(F)(F)F [Example 130, 5-((R)-2-(5-fluoropyridin-3-yl)pyrrolidin-1-yl)-N-((S)-1,1,1-trifluoropropan-2-yl)pyrazolo[1,5-a]pyrimidine-3-carboxamide]
18 | 4.8% | COCCNC(=O)c1cnn2ccc(N3CCC[C@@H]3c3cc(F)cnc3C)nc12 [Example 191, (R)-5-(2-(5-fluoro-2-methylpyridin-3-yl)pyrrolidin-1-yl)-N-(2-methoxyethyl)pyrazolo[1,5-a]pyrimidine-3-carboxamide]
19 | 33.3% | COc1ncc(F)cc1[C@H]1CCCN1c1ccn2ncc(C(=O)NCCO)c2n1 [Example 155, (R)-5-(2-(5-fluoro-2-methoxypyridin-3-yl)pyrrolidin-1-yl)-N-(2-hydroxyethyl)pyrazolo[1,5-a]pyrimidine-3-carboxamide]
20 | 4.5% | O=C(N[C@H]1CCC[C@@H]1O)c1cnn2ccc(N3CCC[C@@H]3c3cncc(F)c3)nc12 [Example 103, 5-((R)-2-(5-fluoropyridin-3-yl)pyrrolidin-1-yl)-N-((1S,2S)-2-hydroxycyclopentyl)pyrazolo[1,5-a]pyrimidine-3-carboxamide]
21 | 7.2% | CC1(C)OCC(COc2ccc(F)cc2[C@H]2CCCN2c2ccn3ncc(C(N)=O)c3n2)O1 (stereo partly drawn) [Example 205, 5-((2R)-2-(2-((2,2-dimethyl-1,3-dioxolan-4-yl)methoxy)-5-fluorophenyl)pyrrolidin-1-yl)pyrazolo[1,5-a]pyrimidine-3-carboxamide]
22 | 96.9% | COc1ccc(F)cc1[C@H]1CCCN1c1ccn2ncc(C(=O)N[C@H]3CC[C@H](O)CC3)c2n1 [Example 34, 5-((R)-2-(5-fluoro-2-methoxyphenyl)pyrrolidin-1-yl)-N-((trans)-4-hydroxycyclohexyl)pyrazolo[1,5-a]pyrimidine-3-carboxamide]
23 | 1.7% | COCC(O)CNC(=O)c1cnn2ccc(N3CCCC3c3cncc(F)c3)nc12 [Example 119, 5-((R)-2-(5-fluoropyridin-3-yl)pyrrolidin-1-yl)-N-(2-hydroxy-3-methoxypropyl)pyrazolo[1,5-a]pyrimidine-3-carboxamide]
24 | 26.2% | C[C@@H](CO)NC(=O)c1cnn2ccc(N3CCC[C@@H]3c3cc(F)ccc3F)nc12 [Example 177, 5-((R)-2-(2,5-difluorophenyl)pyrrolidin-1-yl)-N-((S)-1-hydroxypropan-2-yl)pyrazolo[1,5-a]pyrimidine-3-carboxamide]
25 | 33.1% | O=C(NC[C@@H](O)CO)c1cnn2ccc(N3CCC[C@@H]3c3cc(F)ccc3C(F)(F)F)nc12 [Example 63, N—((R)-2,3-dihydroxypropyl)-5-((R)-2-(5-fluoro-2-(trifluoromethyl)phenyl)pyrrolidin-1-yl)pyrazolo[1,5-a]pyrimidine-3-carboxamide]
26 | 11.7% | O=C(NC1CCOCC1)c1cnn2ccc(N3CCC[C@@H]3c3cncc(F)c3)nc12 [Example 72, (R)-5-(2-(5-fluoropyridin-3-yl)pyrrolidin-1-yl)-N-(tetrahydro-2H-pyran-4-yl)pyrazolo[1,5-a]pyrimidine-3-carboxamide]
27 | 18.7% | O=C(N[C@H]1CC[C@H](O)C1)c1cnn2ccc(N3CCC[C@@H]3c3cncc(F)c3)nc12 [Example 105, 5-((R)-2-(5-fluoropyridin-3-yl)pyrrolidin-1-yl)-N-((1S,3S)-3-hydroxycyclopentyl)pyrazolo[1,5-a]pyrimidine-3-carboxamide]
28 | 6.1% | O=C(N[C@H]1CCC[C@H]1O)c1cnn2ccc(N3CCC[C@@H]3c3cncc(F)c3)nc12 [Example 104, 5-((R)-2-(5-fluoropyridin-3-yl)pyrrolidin-1-yl)-N-((1S,2R)-2-hydroxycyclopentyl)pyrazolo[1,5-a]pyrimidine-3-carboxamide]
